Results published in patent US20050013862A1, “Functional powders for oral delivery” (Vectura Limited, priority 2001, published 2005).

Test: Twin Stage Impinger fine particle fraction
Type: physicochemical
Conditions: glass, 12.8 mm jet
From the text: A Twin Stage Impinger Apparatus (glass with a 12.8 mm jet) was used to determine the fine particle fraction of the formulations of Examples 10, 11 (steps 1 & 2), 11 (step 1 only), 14, and 15, with the following results: […]

Average % Fine Particle Fraction at 601/min (n = 5): 3.89%
Compound: COc1ccc2c(c1)c(CC(=O)O)c(C)n2C(=O)c1ccc(Cl)cc1 [Raw indomethacin (pulverized), indomethacin]
